# Reference: patent EP3400938B1, “NOVEL N-(1,2,3-TRIAZOLMETHYL)ISATIN AND N-(1,2,3-TRIAZOLMETHYL)-3-HYDROXY-3-ARYLOXINDOLES WITH CYTOTOXIC AND ANTI-TUMOR ACTIVITY” (Universidade de Évora, priority 2017, dated 2018)
# Where two headings read alike, the source gives them in different places.
# Legend:
# [1] = system: SW480 colon adenocarcinoma cells; assay: 24 h MTT cytotoxicity assay, SW480 cell line; assay type: cell-based; conditions: 24h exposure time
# Experimental: One of the main strategies for the treatment of cancer is chemotherapy (De Santis et al. 2014). There are two main factors that made the development of new chemotherapeutic agents crucial: the side effects of the current anticancer drugs used in the clinic and the appearance of tumour cell resistance. A first step facing at tackling this challenging goal is the evaluation of the cytotoxic activity of the new synthesized drugs. In our case, cytotoxicity was evaluated by means of the antiproliferative assay MTT, which is a high-throughput method widely used for the screening of new drugs that is based on the ability of the mitochondrial dehydrogenases to reduce a water soluble yellow dye, namely 3-(4,5-dimethylthiazol-2-yl)-2,5-diphenyl tetrazolium bromide, to form a water insoluble blue formazan (McCauley et al., 2013). […] The best inhibition was obtained with (S)-2 (Table 2, entry 2). Overall the (S) series gave better inhibition results. Table 2 IC50 values obtained from MTT assay with a 24h exposure time
# Biological Screening Studies 24 h MTT Cytototoxicity Assay - SW480 cell line
# Approximately 5 × 10^3 SW480 colon adenocarcinoma cells were cultured in 200 µl culture medium per well (DMEM medium), supplemented with 10% newborn calf serum and 1% amphotericin-penicillin-streptomycin solution in 96-well plates and incubated at 37 °C under a 5% CO2 atmosphere. The cells were grown for 24h and then exposed to different concentrations of the tested drugs (dissolved in culture medium) for 24h. Hydrogen peroxide was used as a positive control. The cells were washed with the culture medium, incubated with MTT (500 µg/ml) for a further period of 3 hours. At the end of the incubation, the medium was removed, then carefully washed with PBS and 200 µl DMSO were added to each well. Absorbance was read at 570 nm in a microplate reader. Four replicates per dose were included. The IC50 values, that is, the concentrations which produced 50% inhibition of cell viability were calculated from MTT data using the GraphPadPrism Software Inc. (version 6.01) (USA).
# DOHH-2 = assay: 72 h MTT proliferation assay on lymphoma cell lines (DOHH-2); assay type: cell-based; conditions: DOHH-2 (GCB-DLBCL), 72h exposure time, read-out: GCB-DLBC cell lines IC50, DOHH-2
# Experimental: (§1) A set of ten compounds was tested against four lymphoma cell lines belonging to Germinal Center B-cell-like Diffuse Large B-Cell lymphoma, GCB-DLBCL and Activated B-Cell-like Diffuse Large B-Cell lymphoma, ABC-DLBCL (Table 3). Compounds were tested in triplicates as single agents, for 72 hours by using a large range of concentrations. […] In particular, ISATIN-BENZYL is the most promising one reaching IC50s of 1 and 5 µM in the OCI-LY-10 and SU-DHL-2 cell lines (Table 3). Table 3. IC50 values obtained from MTT assay with a 72h exposure time on lymphoma cell lines.
# (§2) 72 h MTT assay on lymphoma cell lines.
# (§3) Compounds were dissolved in dimethyl sulphoxide (DMSO) to obtain a stock concentration of 20 mM.
# (§4) Cell lines. The panel of lymphoma cell lines comprised models derived from diffuse large B-cell lymphoma (n. 4) cell lines derived from DLBCL of the germinal center B-cell type (GCB-DLBCL), such as VAL and DOHH-2, and derived of the activated B-cell type (ABC-DLBCL) such as OCI-LY-10 and SU-DHL-2.
# (§5) Cells were seeded in 96-well plates (non-tissue culture treated) at a density of 10,000 cells for all cell lines. Each compound was dissolved in dimethyl sulphoxide (DMSO). For treatment of cells, compounds were serially diluted in the appropriate tissue culture medium, at a range of 20 µM - 19 nM following a 1:2 dilution factor and added to cells (in three replicates). Cells were incubated for 72 hours at 37 °C, 5% CO2. DMSO alone was added to negative control (untreated) cells. Wells containing medium only were included on each plate and served as blanks for absorbance readings. MTT (Sigma-Aldrich Chemie GmbH, Buchs, Switzerland) was prepared as a 5 mg/ml stock in PBS and filter-sterilized. MTT solution (22µL) was added to each well and tissue culture plates were incubated at 37°C for 4 hours. Cells were then lysed with 25% SDS lysis buffer and absorbance was read at 570 nm using an AD340 plate reader (Beckman Coulter International SA, Switzerland). Absorbance values were expressed in percentage of proliferating cells in comparison with control cells (control corresponds to 100%).
# VAL = assay: 72 h MTT proliferation assay on lymphoma cell lines (VAL); assay type: cell-based; conditions: VAL (GCB-DLBCL), 72h exposure time, read-out: GCB-DLBC cell lines IC50, VAL
# Experimental: as §1, §2, §3, §4, §5
# OCI-LY-10 = assay: 72 h MTT proliferation assay on lymphoma cell lines (OCI-LY-10); assay type: cell-based; conditions: 72h exposure time, read-out: ABC-DLBC cell lines IC50, OCI-LY-10
# Experimental: as §1, §2, §3, §4, §5
# SU-DHL-2 = assay: 72 h MTT proliferation assay on lymphoma cell lines (SU-DHL-2); assay type: cell-based; conditions: SU-DHL-2 (ABC-DLBCL), 72h exposure time, read-out: ABC-DLBC cell lines IC50, SU-DHL-2
# Experimental: as §1, §2, §3, §4, §5
# [2] = system: SW480 colon adenocarcinoma cells; conditions: bench-mark value from Xu et al. 2003, SW480; cited from earlier work
# [3] = Homo sapiens, OCI-Ly10, OCI-LY-10 (ABC-DLBCL)
SMILES,"IC50 ([1]; Homo sapiens, SW480, 24 h)",IC50 (DOHH-2; Homo sapiens),IC50 (VAL),IC50 (OCI-LY-10; [3]),IC50 [1],further results
"O=C1N(Cc2cn(Cc3ccccc3)nn2)c2ccccc2C1(O)c1ccccc1 [(R) -1, 1-((1-Benzyl-1H-1,2,3-triazol-4-yl)methyl)-3-hydroxy-3-phenylindolin-2-one]",82.6 µM,> 20 µM,> 20 µM,> 20 µM,–,"IC50 (SU-DHL-2; Homo sapiens, SU-DHL-2, 72 h): > 20 µM"
"O=C1N(Cc2cn(Cc3ccccc3)nn2)c2ccccc2C1(O)c1ccc2ccccc2c1 [(R) -2, 1-((1-Benzyl-1H-1,2,3-triazol-4-yl)methyl)-3-hydroxy-3-(naphthalen-2-yl)indolin-2-one]",18.6 µM,> 20 µM,> 20 µM,> 20 µM,–,"IC50 (SU-DHL-2; Homo sapiens, SU-DHL-2, 72 h): > 20 µM"
"O=C1N(Cc2cn(Cc3ccccc3)nn2)c2ccccc2C1(O)c1ccc(F)cc1 [(R) -3, 1-((1-Benzyl-1H-1,2,3-triazol-4-yl)methyl)-3-(4-fluorophenyl)-3-hydroxyindolin-2-one]",49.1 µM,> 20 µM,> 20 µM,> 20 µM,–,"IC50 (SU-DHL-2; Homo sapiens, SU-DHL-2, 72 h): > 20 µM"
"COc1ccc(C2(O)C(=O)N(Cc3cn(Cc4ccccc4)nn3)c3ccccc32)cc1 [(R) -4, 1-((1-Benzyl-1H-1,2,3-triazol-4-yl)methyl)-3-hydroxy-3-(4-methoxyphenyl)indolin-2-one]",76.4 µM,–,–,–,–,–
"O=C1N(Cc2cn(Cc3ccccc3)nn2)c2ccccc2C1(O)c1ccsc1 [(R) -5, 1-((1-Benzyl-1H-1,2,3-triazol-4-yl)methyl)-3-hydroxy-3-(thiophen-3-yl)indolin-2-one]",–,> 20 µM,> 20 µM,> 20 µM,86.4 µM,"IC50 (SU-DHL-2; Homo sapiens, SU-DHL-2, 72 h): > 20 µM"
"O=C1N(Cc2cn(Cc3ccccc3)nn2)c2ccccc2C1(O)c1cccc(O)c1 [(R) -6, 1-((1-Benzyl-1H-1,2,3-triazol-4-yl)methyl)-3-hydroxy-3-(3-hydroxyphenyl)indolin-2-one]",–,–,–,–,210 µM,–
"O=C1N(Cc2cn(Cc3ccccc3)nn2)c2ccc(Br)cc2C1(O)c1ccccc1 [(R) -7, 1-((1-Benzyl-1H-1,2,3-triazol-4-yl)methyl)-5-bromo-3-hydroxy-3-phenylindolin-2-one]",42.5 µM,–,–,–,–,–
"O=C1N(Cc2cn(Cc3ccccc3)nn2)c2ccccc2C1(O)c1ccccc1 [(S) -1, 1-((1-Benzyl-1H-1,2,3-triazol-4-yl)methyl)-3-hydroxy-3-phenylindolin-2-one]",–,–,–,–,63 µM,–
"O=C1N(Cc2cn(Cc3ccccc3)nn2)c2ccccc2C1(O)c1ccc2ccccc2c1 [(S) -2, 1-((1-Benzyl-1H-1,2,3-triazol-4-yl)methyl)-3-hydroxy-3-(naphthalen-2-yl)indolin-2-one]",–,–,> 20 µM,–,12.8 µM,IC50 (DOHH-2): > 20 µM; IC50 (OCI-LY-10; OCI-LY-10 (ABC-DLBCL)): > 20 µM; IC50 (SU-DHL-2): 19 µM
"O=C1N(Cc2cn(Cc3ccccc3)nn2)c2ccccc2C1(O)c1ccc(F)cc1 [(S) -3, 1-((1-Benzyl-1H-1,2,3-triazol-4-yl)methyl)-3-(4-fluorophenyl)-3-hydroxyindolin-2-one]",–,–,> 20 µM,–,25.9 µM,IC50 (DOHH-2): > 20 µM; IC50 (OCI-LY-10; OCI-LY-10 (ABC-DLBCL)): > 20 µM; IC50 (SU-DHL-2): > 20 µM
"COc1ccc(C2(O)C(=O)N(Cc3cn(Cc4ccccc4)nn3)c3ccccc32)cc1 [(S) -4, 1-((1-Benzyl-1H-1,2,3-triazol-4-yl)methyl)-3-hydroxy-3-(4-methoxyphenyl)indolin-2-one]",–,–,–,–,48.9 µM,–
"O=C1N(Cc2cn(Cc3ccccc3)nn2)c2ccccc2C1(O)c1ccsc1 [(S) -5, 1-((1-Benzyl-1H-1,2,3-triazol-4-yl)methyl)-3-hydroxy-3-(thiophen-3-yl)indolin-2-one]",–,–,–,–,33 µM,–
"O=C1N(Cc2cn(Cc3ccccc3)nn2)c2ccccc2C1(O)c1cccc(O)c1 [(S) -6, 1-((1-Benzyl-1H-1,2,3-triazol-4-yl)methyl)-3-hydroxy-3-(3-hydroxyphenyl)indolin-2-one]",–,–,–,–,52.8 µM,–
"O=C1N(Cc2cn(Cc3ccccc3)nn2)c2ccc(Br)cc2C1(O)c1ccccc1 [(S) -7, 1-((1-Benzyl-1H-1,2,3-triazol-4-yl)methyl)-5-bromo-3-hydroxy-3-phenylindolin-2-one]",–,19 µM,> 20 µM,> 20 µM,34.1 µM,"IC50 (SU-DHL-2; Homo sapiens, SU-DHL-2, 72 h): 19 µM"
"Cc1ccc(C2(O)C(=O)N(Cc3cn(Cc4ccccc4)nn3)c3ccccc32)cc1 [(S) -8, 1-((1-Benzyl-1H-1,2,3-triazol-4-yl)methyl)-3-hydroxy-3-p-tolylindolin-2-one]",> 200 µM,–,–,–,–,–
"CCCCn1cc(CN2C(=O)C(O)(c3ccccc3)c3ccccc32)nn1 [(S) -9, 1-((1-Butyl-1H-1,2,3-triazol-4-yl)methyl)-3-hydroxy-3-phenylindolin-2-one]",> 200 µM,–,–,–,–,–
"COc1cccc2c1C(=O)c1c(O)c3c(c(O)c1C2=O)C[C@@](O)(C(=O)CO)C[C@@H]3O[C@H]1C[C@H](N)[C@H](O)[C@H](C)O1 [Dox, doxorubicin]",–,–,–,–,–,IC50 [2]: 65.3 µM
"CC(C)[C@H]1CC[C@H](C)C[C@H]1n1cc(CN2C(=O)C(=O)c3ccccc32)nn1 [ISATIN-BENZYL, 1-((1-((1R,2R,5S)-2-Isopropyl-5-methylcyclohexyl)-1H-1,2,3-triazol-4-yl)methyl)indoline-2,3-dione]",–,> 20 µM,> 20 µM,1 µM,–,IC50 ([1]; Homo sapiens): 84.4 µM; IC50 (SU-DHL-2; Homo sapiens): 5 µM
"O=C1C(=O)N(Cc2cn(Cc3ccccc3)nn2)c2ccccc21 [ISATIN-MENTHOL, 1-((1-Benzyl-1H-1,2,3-triazol-4-yl)methyl)indoline-2,3-dione]",–,> 20 µM,> 20 µM,7 µM,–,IC50 ([1]; Homo sapiens): 13.7 µM; IC50 (SU-DHL-2; Homo sapiens): 15 µM
